Consider 10 molecules from ChEMBL document CHEMBL1909294, “Translating clinical findings into knowledge in drug safety evaluation--drug induced liver injury prediction system (DILIps)” (PLoS Comput Biol, 2011).

Series [1] deals with Hepatotoxicity.
Series [2] deals with Hepatotoxicity. This is another data set of the same source.
Series [3] relates to Hepatotoxicity. This is another data set of the same source.
Series [4] has as its system Hepatotoxicity. The source holds these as a separate data set.
Series [5] concerns Hepatotoxicity. The source holds these as a separate data set.
Series [6] deals with Hepatotoxicity. This is another data set of the same source.
The test system of series [7] is Hepatotoxicity. This is another data set of the same source.
Series [8] has as its system Hepatotoxicity. This is another data set of the same source.
For series [9], the system named is Hepatotoxicity. This is another data set of the same source.
In series [10] the test system is Hepatotoxicity. The source holds these as a separate data set.
Series [11] concerns Hepatotoxicity. The source holds these as a separate data set.
Series [12] deals with Hepatotoxicity. The source holds these as a separate data set.
Series [13] has as its system Hepatotoxicity. The source holds these as a separate data set.
The test system of series [14] is Hepatotoxicity. This is another data set of the same source.

Each structure is given as a SMILES string.
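For HepSE Combined Scores in this document: combined hepatic side effect score as listed in the training data of the Drug Induced Liver Injury Prediction System (DILIps).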
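For HepSE bilirubinemia in this document: bilirubinemia hepatic side effect score drawn from the DILIps training data, a prediction system for drug-induced liver injury; call rule not given here.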
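For HepSE cholecystitis in this document: Cholecystitis-related hepatic side effect score drawn from the DILIps (drug-induced liver injury prediction) training data set; call rule not given here.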
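For HepSE cholelithiasis in this document: hepatic side effect score for cholelithiasis, drawn from the DILIps training data for predicting drug-induced liver injury; call rule not given here.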
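For HepSE cirrhosis in this document: cirrhosis hepatic side effect score taken from the DILIps (drug-induced liver injury prediction) training set; call rule not given here.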
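For HepSE elevated liver function tests in this document: hepatic side effect score for raised liver function tests, as recorded in the DILIps training set used for predicting drug-induced liver injury.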
For HepSE hepatic failure in this document: call rule not given here.
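For HepSE hepatic necrosis in this document: score of hepatic side effects for hepatic necrosis, drawn from the training data of DILIps, a prediction system for drug-induced liver injury; call rule not given here.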
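For HepSE hepatitis in this document: Hepatitis-related hepatic side effect score taken from the training data of DILIps, a prediction system for drug-induced liver injury; call rule not given here.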
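For HepSE hepatomegaly in this document: hepatic side effect score for hepatomegaly, taken from the training set of the DILIps drug-induced liver injury prediction system; call rule not given here.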
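For HepSE jaundice in this document: Jaundice-related hepatic side-effect score drawn from the training data of the DILIps (drug-induced liver injury prediction system); call rule not given here.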
For HepSE liver disease in this document: call rule not given here.
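For HepSE liver fatty in this document: hepatic side effect score for fatty liver, taken from the DILIps training set for predicting drug-induced liver injury; call rule not given here.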
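For HepSE liver function tests abnormal in this document: hepatic side effect score taken from the DILIps (drug-induced liver injury prediction system) training data, here covering abnormal liver function test findings.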

Molecule `CN(C)[C@@H]1C(O)=C(C(N)=O)C(=O)[C@@]2(O)C(O)=C3C(=O)c4c(O)cccc4[C@@](C)(O)[C@H]3C[C@@H]12` [TETRACYCLINE] showed a HepSE_hepatitis in the series on Hepatotoxicity [1] of 0. Also, the HepSE_cirrhosis with Hepatotoxicity [2] amounted to 0. For the same molecule, the HepSE_hepatic failure with Hepatotoxicity [3] turned out to be 1. Also, in the series with Hepatotoxicity [4], the HepSE_bilirubinemia came to 0. Moreover, in the series on Hepatotoxicity [5], the “HepSE_Combined Scores” value was 1. In the series on Hepatotoxicity [6], the HepSE_hepatomegaly amounted to 0. The “HepSE_elevated liver function tests” value in the series with Hepatotoxicity [7] was determined as 0. Also, the “HepSE_liver function tests abnormal” value in the series on Hepatotoxicity [8] was determined as 0. Further, the HepSE_liver fatty with Hepatotoxicity [9] worked out at 0. The molecule further registered a HepSE_jaundice in the series with Hepatotoxicity [10] of 0. The HepSE_hepatic necrosis in the series with Hepatotoxicity [11] is listed as 0. Moreover, the HepSE_cholecystitis in the series with Hepatotoxicity [12] is given as 0. The HepSE_cholelithiasis with Hepatotoxicity [13] turned out to be 0. The same molecule gave a HepSE_liver disease with Hepatotoxicity [14] of 0.
On to `CC(C)(O)c1ccccc1CC[C@@H](SCC1(CC(=O)O)CC1)c1cccc(/C=C/c2ccc3ccc(Cl)cc3n2)c1` [MONTELUKAST], for which, in the series on Hepatotoxicity [1], the HepSE_hepatitis stood at 1. Further, the HepSE_cirrhosis in the series with Hepatotoxicity [2] was determined as 0. The same molecule had a HepSE_hepatic failure with Hepatotoxicity [3] of 0. Moreover, the HepSE_bilirubinemia in the series on Hepatotoxicity [4] stood at 0. In addition, the “HepSE_Combined Scores” value with Hepatotoxicity [5] is recorded as 2. The same molecule had a HepSE_hepatomegaly in the series on Hepatotoxicity [6] of 0. Also, the “HepSE_elevated liver function tests” value in the series on Hepatotoxicity [7] worked out at 0. Also, the “HepSE_liver function tests abnormal” value in the series on Hepatotoxicity [8] came out at 0. Moreover, the HepSE_liver fatty in the series with Hepatotoxicity [9] is on record as 0. The same molecule returned a HepSE_jaundice in the series on Hepatotoxicity [10] of 0. In the series on Hepatotoxicity [11], this molecule registered a HepSE_hepatic necrosis of 0. In the series with Hepatotoxicity [12], this molecule returned a HepSE_cholecystitis of 0. In the series with Hepatotoxicity [13], this molecule came in with a HepSE_cholelithiasis of 0. In the series on Hepatotoxicity [14], this molecule registered a HepSE_liver disease of 1.
`O=C1OC2(c3ccc(O)cc3Oc3cc(O)ccc32)c2ccccc21` [FLUORESCEIN]: the HepSE_hepatitis with Hepatotoxicity [1] is listed as 0. The molecule also returned a HepSE_cirrhosis with Hepatotoxicity [2] of 0. This molecule yielded a HepSE_hepatic failure with Hepatotoxicity [3] of 0. For the same molecule, the HepSE_bilirubinemia with Hepatotoxicity [4] is 0. Moreover, the “HepSE_Combined Scores” value with Hepatotoxicity [5] was 0. The same molecule came in with a HepSE_hepatomegaly in the series on Hepatotoxicity [6] of 0. Besides, the “HepSE_elevated liver function tests” value in the series with Hepatotoxicity [7] is given as 0. Besides, the “HepSE_liver function tests abnormal” value with Hepatotoxicity [8] was determined as 0. This molecule also showed a HepSE_liver fatty with Hepatotoxicity [9] of 0. In the series on Hepatotoxicity [10], this molecule had a HepSE_jaundice of 0. Also, the HepSE_hepatic necrosis in the series with Hepatotoxicity [11] turned out to be 0. For the same molecule, the HepSE_cholecystitis with Hepatotoxicity [12] amounted to 0. The HepSE_cholelithiasis in the series on Hepatotoxicity [13] stood at 0. Besides, the HepSE_liver disease with Hepatotoxicity [14] came out at 0.
For `CN(C)CCCN1c2ccccc2Sc2ccc(Cl)cc21` [CHLORPROMAZINE], in the series with Hepatotoxicity [1], the HepSE_hepatitis is on record as 0. This molecule gave a HepSE_cirrhosis in the series with Hepatotoxicity [2] of 1. In the series with Hepatotoxicity [3], this molecule showed a HepSE_hepatic failure of 0. This molecule also registered a HepSE_bilirubinemia with Hepatotoxicity [4] of 0. Further, the “HepSE_Combined Scores” value with Hepatotoxicity [5] is reported as 3. In the series with Hepatotoxicity [6], this molecule came in with a HepSE_hepatomegaly of 0. In addition, in the series with Hepatotoxicity [7], the “HepSE_elevated liver function tests” value came to 0. For the same molecule, the “HepSE_liver function tests abnormal” value in the series with Hepatotoxicity [8] stood at 0. The molecule further displayed a HepSE_liver fatty in the series on Hepatotoxicity [9] of 0. In the series with Hepatotoxicity [10], this molecule had a HepSE_jaundice of 1. Moreover, the HepSE_hepatic necrosis in the series on Hepatotoxicity [11] turned out to be 0. In the series with Hepatotoxicity [12], this molecule gave a HepSE_cholecystitis of 0. In the series with Hepatotoxicity [13], this molecule yielded a HepSE_cholelithiasis of 0. In the series with Hepatotoxicity [14], this molecule gave a HepSE_liver disease of 1.
On to `NC(=O)c1cnccn1` [PYRAZINAMIDE], for which the HepSE_hepatitis in the series with Hepatotoxicity [1] is on record as 0. The HepSE_cirrhosis with Hepatotoxicity [2] is 0. The HepSE_hepatic failure in the series with Hepatotoxicity [3] came to 0. The molecule further yielded a HepSE_bilirubinemia in the series with Hepatotoxicity [4] of 0. In addition, the “HepSE_Combined Scores” value with Hepatotoxicity [5] amounted to 0. In the series on Hepatotoxicity [6], this molecule yielded a HepSE_hepatomegaly of 0. Further, the “HepSE_elevated liver function tests” value in the series on Hepatotoxicity [7] was 0. Moreover, the “HepSE_liver function tests abnormal” value with Hepatotoxicity [8] is 0. The molecule further yielded a HepSE_liver fatty in the series on Hepatotoxicity [9] of 0. In the series with Hepatotoxicity [10], this molecule came in with a HepSE_jaundice of 0. Moreover, in the series with Hepatotoxicity [11], the HepSE_hepatic necrosis stood at 0. The molecule further returned a HepSE_cholecystitis in the series with Hepatotoxicity [12] of 0. In the series on Hepatotoxicity [13], this molecule gave a HepSE_cholelithiasis of 0. In addition, in the series with Hepatotoxicity [14], the HepSE_liver disease is 0.
Turning to `O=C(O)c1cc(/N=N/c2ccc(S(=O)(=O)Nc3ccccn3)cc2)ccc1O` [SULFASALAZINE], the HepSE_hepatitis with Hepatotoxicity [1] is reported as 1. The HepSE_cirrhosis in the series on Hepatotoxicity [2] is listed as 1. The molecule further gave a HepSE_hepatic failure in the series with Hepatotoxicity [3] of 1. The same molecule showed a HepSE_bilirubinemia with Hepatotoxicity [4] of 0. Further, the “HepSE_Combined Scores” value with Hepatotoxicity [5] is listed as 7. The HepSE_hepatomegaly in the series on Hepatotoxicity [6] came out at 0. The “HepSE_elevated liver function tests” value with Hepatotoxicity [7] came to 1. For the same molecule, the “HepSE_liver function tests abnormal” value with Hepatotoxicity [8] amounted to 1. Further, the HepSE_liver fatty in the series on Hepatotoxicity [9] came out at 0. Moreover, in the series on Hepatotoxicity [10], the HepSE_jaundice was found to be 1. This molecule also gave a HepSE_hepatic necrosis with Hepatotoxicity [11] of 1. Besides, the HepSE_cholecystitis in the series on Hepatotoxicity [12] came to 0. Besides, the HepSE_cholelithiasis in the series with Hepatotoxicity [13] amounted to 0. Also, the HepSE_liver disease in the series with Hepatotoxicity [14] is 0.
For `Nc1ccn([C@@H]2O[C@H](CO)[C@@H](O)[C@@H]2O)c(=O)n1` [CYTARABINE], the HepSE_hepatitis in the series on Hepatotoxicity [1] (Liver) is listed as 0. In addition, the HepSE_cirrhosis in the series with Hepatotoxicity [2] (Liver) was 0. The HepSE_hepatic failure in the series on Hepatotoxicity [3] (Liver) is 0. Also, the HepSE_bilirubinemia in the series on Hepatotoxicity [4] (Liver) turned out to be 1. Further, the “HepSE_Combined Scores” value with Hepatotoxicity [5] (Liver) is 2. Besides, the HepSE_hepatomegaly in the series on Hepatotoxicity [6] (Liver) amounted to 0. In the series with Hepatotoxicity [7] (Liver), the “HepSE_elevated liver function tests” value was 0. Besides, the “HepSE_liver function tests abnormal” value in the series on Hepatotoxicity [8] (Liver) is given as 0. In the series on Hepatotoxicity [9] (Liver), this molecule showed a HepSE_liver fatty of 0. The same molecule returned a HepSE_jaundice in the series with Hepatotoxicity [10] (Liver) of 1. In the series on Hepatotoxicity [11] (Liver), the HepSE_hepatic necrosis was 0. This molecule also gave a HepSE_cholecystitis in the series with Hepatotoxicity [12] (Liver) of 0. In the series with Hepatotoxicity [13] (Liver), this molecule gave a HepSE_cholelithiasis of 0. Besides, in the series with Hepatotoxicity [14] (Liver), the HepSE_liver disease is listed as 0.
The molecule `CCC[C@@]1(CCc2ccccc2)CC(O)=C([C@H](CC)c2cccc(NS(=O)(=O)c3ccc(C(F)(F)F)cn3)c2)C(=O)O1` displayed a HepSE_hepatitis with Hepatotoxicity [1] of 1. Besides, in the series with Hepatotoxicity [2], the HepSE_cirrhosis turned out to be 0. For the same molecule, the HepSE_hepatic failure in the series with Hepatotoxicity [3] is 1. Besides, the HepSE_bilirubinemia in the series on Hepatotoxicity [4] came to 1. For the same molecule, the “HepSE_Combined Scores” value in the series with Hepatotoxicity [5] came out at 6. For the same molecule, the HepSE_hepatomegaly in the series with Hepatotoxicity [6] was 0. Moreover, the “HepSE_elevated liver function tests” value in the series on Hepatotoxicity [7] is on record as 0. Besides, the “HepSE_liver function tests abnormal” value with Hepatotoxicity [8] worked out at 1. The HepSE_liver fatty with Hepatotoxicity [9] was determined as 1. Besides, in the series on Hepatotoxicity [10], the HepSE_jaundice was 1. In the series on Hepatotoxicity [11], the HepSE_hepatic necrosis was found to be 0. Further, the HepSE_cholecystitis with Hepatotoxicity [12] turned out to be 0. In the series on Hepatotoxicity [13], this molecule displayed a HepSE_cholelithiasis of 0. In addition, in the series on Hepatotoxicity [14], the HepSE_liver disease is reported as 0.
On to `CN(C)CC/C=C1/c2ccccc2COc2ccc(CC(=O)O)cc21` [OLOPATADINE], for which the HepSE_hepatitis with Hepatotoxicity [1] turned out to be 0. Besides, the HepSE_cirrhosis with Hepatotoxicity [2] came out at 0. Besides, the HepSE_hepatic failure with Hepatotoxicity [3] was 0. In the series with Hepatotoxicity [4], the HepSE_bilirubinemia was 0. Further, the “HepSE_Combined Scores” value in the series with Hepatotoxicity [5] amounted to 0. Further, the HepSE_hepatomegaly in the series with Hepatotoxicity [6] stood at 0. The “HepSE_elevated liver function tests” value in the series on Hepatotoxicity [7] was found to be 0. The “HepSE_liver function tests abnormal” value in the series with Hepatotoxicity [8] came out at 0. Further, the HepSE_liver fatty with Hepatotoxicity [9] was determined as 0. The HepSE_jaundice in the series with Hepatotoxicity [10] is listed as 0. In the series on Hepatotoxicity [11], this molecule returned a HepSE_hepatic necrosis of 0. Also, the HepSE_cholecystitis in the series with Hepatotoxicity [12] is reported as 0. In the series with Hepatotoxicity [13], this molecule registered a HepSE_cholelithiasis of 0. Also, the HepSE_liver disease in the series on Hepatotoxicity [14] was determined as 0.
`NC(=O)N1c2ccccc2C=Cc2ccccc21` [CARBAMAZEPINE]: the HepSE_hepatitis in the series with Hepatotoxicity [1] came out at 1. In the series with Hepatotoxicity [2], this molecule returned a HepSE_cirrhosis of 0. The molecule also came in with a HepSE_hepatic failure in the series on Hepatotoxicity [3] of 1. Moreover, the HepSE_bilirubinemia in the series on Hepatotoxicity [4] is given as 0. For the same molecule, the “HepSE_Combined Scores” value in the series on Hepatotoxicity [5] was 4. Moreover, the HepSE_hepatomegaly with Hepatotoxicity [6] worked out at 0. For the same molecule, in the series on Hepatotoxicity [7], the “HepSE_elevated liver function tests” value is on record as 0. In addition, in the series on Hepatotoxicity [8], the “HepSE_liver function tests abnormal” value is given as 1. The HepSE_liver fatty in the series on Hepatotoxicity [9] came to 0. The molecule further showed a HepSE_jaundice in the series with Hepatotoxicity [10] of 1. The HepSE_hepatic necrosis in the series with Hepatotoxicity [11] worked out at 0. Further, in the series with Hepatotoxicity [12], the HepSE_cholecystitis worked out at 0. The same molecule yielded a HepSE_cholelithiasis in the series with Hepatotoxicity [13] of 0. This molecule also displayed a HepSE_liver disease in the series with Hepatotoxicity [14] of 0.
